What was measured:
Assay type in all cases: in vivo
[1] = test system: Amaranthus retoflexus (AMARE); experiment: Pre-emergence herbicidal test; conditions: 1000 g/ha, evaluated after 13 days
[2] = test system: Setaria faberi (SETFA); experiment: Pre-emergence herbicidal test; conditions: 1000 g/ha, evaluated after 13 days
[3] = test system: Echinochloa crus-galli (ECHCG); experiment: Pre-emergence herbicidal test; conditions: 1000 g/ha, evaluated after 13 days
[4] = test system: Ipomoea hederacea (IPOHE); experiment: Pre-emergence herbicidal test; conditions: 1000 g/ha, evaluated after 13 days
[5] = test system: Abutilon theophrasti (ABUTH); experiment: Pre-emergence herbicidal test; conditions: 1000 g/ha, evaluated after 13 days
[6] = test system: Zea mays (ZEAMX); experiment: Pre-emergence herbicidal test; conditions: 1000 g/ha, evaluated after 13 days
[7] = test system: Abutilon theophrasti (ABUTH); experiment: Post-emergence herbicidal test; conditions: 1000 g/ha unless otherwise stated, evaluated after 13 days
Summary of the method: (§1)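 Scored 0–5 for percent damage (0=0%, 5=81-100%) 13 days after spraying, typically at 1000 g/ha in acetone/water (50:50) plus 0.5% Tween 20. Post-emergence plants treated at 8 days old, grown at 24° C/16° C day/night, 14 h light, 65% humidity, watered twice daily.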

[8] = test system: Amaranthus retoflexus (AMARE); experiment: Post-emergence herbicidal test; conditions: 1000 g/ha unless otherwise stated, evaluated after 13 days
Summary of the method: as §1

[9] = test system: Echinochloa crus-galli (ECHCG); experiment: Post-emergence herbicidal test; conditions: 1000 g/ha unless otherwise stated, evaluated after 13 days
Summary of the method: as §1

[10] = test system: Ipomoea hederacea (IPOHE); experiment: Post-emergence herbicidal test; conditions: 1000 g/ha unless otherwise stated, evaluated after 13 days
Summary of the method: as §1

[11] = test system: Setaria faberi (SETFA); experiment: Post-emergence herbicidal test; conditions: 1000 g/ha unless otherwise stated, evaluated after 13 days
Summary of the method: as §1

[12] = test system: Zea mays (ZEAMX); experiment: Post-emergence herbicidal test; conditions: 1000 g/ha unless otherwise stated, evaluated after 13 days
Summary of the method: as §1

For CS(=O)(=O)c1cccc2c1c(=O)c(C(=O)OCC1CC1)nn2-c1ccc(OC(F)(F)F)cc1 [Compound P63, cyclopropylmethyl 5-methylsulfonyl-4-oxo-1-[4-(trifluoromethoxy)phenyl]cinnoline-3-carboxylate], the “percentage damage caused to the plant, five-point scale, AMARE” value [1] was 0 (0=0%), the “percentage damage caused to the plant, five-point scale, SETFA” value [2] was 5 (5=81-100%) and the “percentage damage caused to the plant, five-point scale, ECHCG” value [3] was 3 (3=41-60%). For the same compound, the “percentage damage caused to the plant, five-point scale, IPOHE” value [4] was 0 (0=0%), the “percentage damage caused to the plant, five-point scale, ABUTH” value [5] was 0 (0=0%) and the “percentage damage caused to the plant, five-point scale, ZEAMX” value [6] was 0 (0=0%). The “percentage damage caused to the plant, ABUTH (five-point scale)” value [7] was 0 (0=0%), the “percentage damage caused to the plant, AMARE (five-point scale)” value [8] was 0 (0=0%) and the “percentage damage caused to the plant, ECHCG (five-point scale)” value [9] was 3 (3=41-60%). The “percentage damage caused to the plant, IPOHE (five-point scale)” value [10] was 0 (0=0%), the “percentage damage caused to the plant, SETFA (five-point scale)” value [11] was 4 (4=61-80%) and the “percentage damage caused to the plant, ZEAMX (five-point scale)” value [12] was 0 (0=0%).

For C=CC(C)OC(=O)c1nn(-c2ccc(OC(F)(F)F)cc2)c2cccc(S(C)(=O)=O)c2c1=O (stereo not drawn) [Compound P64, 1-methylallyl 5-methylsulfonyl-4-oxo-1-[4-(trifluoromethoxy)phenyl]cinnoline-3-carboxylate], the “percentage damage caused to the plant, five-point scale, AMARE” value [1] was 0 (0=0%), the “percentage damage caused to the plant, five-point scale, SETFA” value [2] was 5 (5=81-100%) and the “percentage damage caused to the plant, five-point scale, ECHCG” value [3] was 4 (4=61-80%). For the same compound, the “percentage damage caused to the plant, five-point scale, IPOHE” value [4] was 0 (0=0%), the “percentage damage caused to the plant, five-point scale, ABUTH” value [5] was 0 (0=0%) and the “percentage damage caused to the plant, five-point scale, ZEAMX” value [6] was 0 (0=0%). The “percentage damage caused to the plant, ABUTH (five-point scale)” value [7] was 1 (1=10-20%), the “percentage damage caused to the plant, AMARE (five-point scale)” value [8] was 0 (0=0%) and the “percentage damage caused to the plant, ECHCG (five-point scale)” value [9] was 3 (3=41-60%). The “percentage damage caused to the plant, IPOHE (five-point scale)” value [10] was 0 (0=0%), the “percentage damage caused to the plant, SETFA (five-point scale)” value [11] was 4 (4=61-80%) and the “percentage damage caused to the plant, ZEAMX (five-point scale)” value [12] was 1 (1=10-20%).

In the case of CC(C)OC(=O)c1nn(-c2ccc(OC(F)(F)F)cc2)c2cccc(S(C)(=O)=O)c2c1=O [Compound P65, isopropyl 5-methylsulfonyl-4-oxo-1-[4-(trifluoromethoxy)phenyl]cinnoline-3-carboxylate], the “percentage damage caused to the plant, five-point scale, AMARE” value [1] is reported as 1 (1=10-20%), the “percentage damage caused to the plant, five-point scale, SETFA” value [2] is reported as 4 (4=61-80%) and the “percentage damage caused to the plant, five-point scale, ECHCG” value [3] is reported as 4 (4=61-80%). For the same compound, the “percentage damage caused to the plant, five-point scale, IPOHE” value [4] was 0 (0=0%), the “percentage damage caused to the plant, five-point scale, ABUTH” value [5] was 1 (1=10-20%) and the “percentage damage caused to the plant, five-point scale, ZEAMX” value [6] was 0 (0=0%). The “percentage damage caused to the plant, ABUTH (five-point scale)” value [7] was 1 (1=10-20%), the “percentage damage caused to the plant, AMARE (five-point scale)” value [8] was 1 (1=10-20%) and the “percentage damage caused to the plant, ECHCG (five-point scale)” value [9] was 3 (3=41-60%). The “percentage damage caused to the plant, IPOHE (five-point scale)” value [10] was 0 (0=0%), the “percentage damage caused to the plant, SETFA (five-point scale)” value [11] was 4 (4=61-80%) and the “percentage damage caused to the plant, ZEAMX (five-point scale)” value [12] was 0 (0=0%).

In the case of C=C(Cl)COC(=O)c1nn(-c2ccc(OC(F)(F)F)cc2)c2cccc(S(C)(=O)=O)c2c1=O [Compound P66, 2-chloroallyl 5-methylsulfonyl-4-oxo-1-[4-(trifluoromethoxy)phenyl]cinnoline-3-carboxylate], the “percentage damage caused to the plant, five-point scale, AMARE” value [1] is reported as 0 (0=0%), the “percentage damage caused to the plant, five-point scale, SETFA” value [2] is reported as 5 (5=81-100%) and the “percentage damage caused to the plant, five-point scale, ECHCG” value [3] is reported as 4 (4=61-80%). For the same compound, the “percentage damage caused to the plant, five-point scale, IPOHE” value [4] was 1 (1=10-20%), the “percentage damage caused to the plant, five-point scale, ABUTH” value [5] was 0 (0=0%) and the “percentage damage caused to the plant, five-point scale, ZEAMX” value [6] was 1 (1=10-20%). For the same compound, the “percentage damage caused to the plant, ABUTH (five-point scale)” value [7] was 1 (1=10-20%), the “percentage damage caused to the plant, AMARE (five-point scale)” value [8] was 0 (0=0%) and the “percentage damage caused to the plant, ECHCG (five-point scale)” value [9] was 4 (4=61-80%). The “percentage damage caused to the plant, IPOHE (five-point scale)” value [10] was 0 (0=0%), the “percentage damage caused to the plant, SETFA (five-point scale)” value [11] was 4 (4=61-80%) and the “percentage damage caused to the plant, ZEAMX (five-point scale)” value [12] was 1 (1=10-20%).

CS(=O)(=O)c1cccc2c1c(=O)c(C(=O)OCC(F)F)nn2-c1ccc(OC(F)(F)F)cc1 [Compound P67, 2,2-difluoroethyl 5-methylsulfonyl-4-oxo-1-[4-(trifluoromethoxy)phenyl]cinnoline-3-carboxylate] was tested, and the “percentage damage caused to the plant, five-point scale, AMARE” value [1] was 0 (0=0%), the “percentage damage caused to the plant, five-point scale, SETFA” value [2] was 5 (5=81-100%) and the “percentage damage caused to the plant, five-point scale, ECHCG” value [3] was 4 (4=61-80%). The “percentage damage caused to the plant, five-point scale, IPOHE” value [4] was 0 (0=0%), the “percentage damage caused to the plant, five-point scale, ABUTH” value [5] was 0 (0=0%) and the “percentage damage caused to the plant, five-point scale, ZEAMX” value [6] was 2 (2=21-40%). The “percentage damage caused to the plant, ABUTH (five-point scale)” value [7] was 1 (1=10-20%), the “percentage damage caused to the plant, AMARE (five-point scale)” value [8] was 1 (1=10-20%) and the “percentage damage caused to the plant, ECHCG (five-point scale)” value [9] was 3 (3=41-60%). The “percentage damage caused to the plant, IPOHE (five-point scale)” value [10] was 1 (1=10-20%), the “percentage damage caused to the plant, SETFA (five-point scale)” value [11] was 4 (4=61-80%) and the “percentage damage caused to the plant, ZEAMX (five-point scale)” value [12] was 1 (1=10-20%).

With CC(C)(C)COC(=O)c1nn(-c2ccc(OC(F)(F)F)cc2)c2cccc(S(C)(=O)=O)c2c1=O [Compound P68, 2,2-dimethylpropyl 5-methylsulfonyl-4-oxo-1-[4-(trifluoromethoxy)phenyl]cinnoline-3-carboxylate] the “percentage damage caused to the plant, five-point scale, AMARE” value [1] was 0 (0=0%), the “percentage damage caused to the plant, five-point scale, SETFA” value [2] was 4 (4=61-80%) and the “percentage damage caused to the plant, five-point scale, ECHCG” value [3] was 4 (4=61-80%). The “percentage damage caused to the plant, five-point scale, IPOHE” value [4] was 0 (0=0%), the “percentage damage caused to the plant, five-point scale, ABUTH” value [5] was 0 (0=0%) and the “percentage damage caused to the plant, five-point scale, ZEAMX” value [6] was 0 (0=0%). The “percentage damage caused to the plant, ABUTH (five-point scale)” value [7] was 0 (0=0%), the “percentage damage caused to the plant, AMARE (five-point scale)” value [8] was 0 (0=0%) and the “percentage damage caused to the plant, ECHCG (five-point scale)” value [9] was 3 (3=41-60%). The “percentage damage caused to the plant, IPOHE (five-point scale)” value [10] was 0 (0=0%), the “percentage damage caused to the plant, SETFA (five-point scale)” value [11] was 3 (3=41-60%) and the “percentage damage caused to the plant, ZEAMX (five-point scale)” value [12] was 1 (1=10-20%).

In the case of COCCCOC(=O)c1nn(-c2ccc(OC(F)(F)F)cc2)c2cccc(S(C)(=O)=O)c2c1=O [Compound P69, 3-methoxypropyl 5-methylsulfonyl-4-oxo-1-[4-(trifluoromethoxy)phenyl]cinnoline-3-carboxylate], the “percentage damage caused to the plant, five-point scale, AMARE” value [1] is reported as 0 (0=0%), the “percentage damage caused to the plant, five-point scale, SETFA” value [2] is reported as 4 (4=61-80%) and the “percentage damage caused to the plant, five-point scale, ECHCG” value [3] is reported as 4 (4=61-80%). The “percentage damage caused to the plant, five-point scale, IPOHE” value [4] was 0 (0=0%), the “percentage damage caused to the plant, five-point scale, ABUTH” value [5] was 0 (0=0%) and the “percentage damage caused to the plant, five-point scale, ZEAMX” value [6] was 0 (0=0%). The “percentage damage caused to the plant, ABUTH (five-point scale)” value [7] was 1 (1=10-20%), the “percentage damage caused to the plant, AMARE (five-point scale)” value [8] was 0 (0=0%) and the “percentage damage caused to the plant, ECHCG (five-point scale)” value [9] was 3 (3=41-60%). The “percentage damage caused to the plant, IPOHE (five-point scale)” value [10] was 1 (1=10-20%), the “percentage damage caused to the plant, SETFA (five-point scale)” value [11] was 4 (4=61-80%) and the “percentage damage caused to the plant, ZEAMX (five-point scale)” value [12] was 2 (2=21-40%).

— patent publication US20230250066A1, “HERBICIDAL CINNOLINE DERIVATIVES” (SYNGENTA CROP PROTECTION AG, priority 2020, published 2023)
